Data on 16 molecules can be found in PubChem BioAssay AID330 (DTP/NCI, 2004).

Molecules are shown by their SMILES. Toxic doses and inconclusive results are not listed.

In this assay the test system is P388 leukemia ip, CD2F1 mice, survival T/C. Nature of the assay: NCI In Vivo Anticancer Drug Screen. Data for tumor model P388 Leukemia (intraperitoneal) in CD2F1 (CDF1) mice. The note with it: endpoint: median survival time, higher = longer survival. An outline of the steps: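 Mice carrying the transplanted tumor received test compound or vehicle. Survival was recorded in each group, and the value is the treated-group measurement divided by that of the vehicle-treated control group.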

[1] abbreviates: dose: 50.0 mg/kg/injection, schedule: Q01DX009 (ip), vehicle: saline with Tween-80.
The mark [2] stands for this setting: dose: 60.0 mg/kg/injection, schedule: Q01DX005 (ip), vehicle: saline with Tween-80.
[3] abbreviates: dose: 120.0 mg/kg/injection, schedule: Q01DX005 (ip), vehicle: saline with Tween-80.
Setting [4] is: dose: 50.0 mg/kg/injection, schedule: Q01DX005 (ip), vehicle: saline with Tween-80.
Where [5] appears, read: dose: 100.0 mg/kg/injection, schedule: Q01DX005 (ip), vehicle: saline with Tween-80.
[6] abbreviates: dose: 200.0 mg/kg/injection, schedule: Q01DX005 (ip), vehicle: saline with Tween-80.

Consider `O=C1CCCC12CCCC2=O`, for which the T/C under setting [1] was 103 % of control; the T/C (dose: 100.0 mg/kg/injection, schedule: Q01DX009 (ip), vehicle: saline with Tween-80) was 100 % of control; the T/C (dose: 200.0 mg/kg/injection, schedule: Q01DX009 (ip), vehicle: saline with Tween-80) was 109 % of control.

With `Nc1nnc(-c2ccc(Nc3nc4ccccc4[nH]3)c([N+](=O)[O-])c2)s1`, the T/C was 98 % of control under setting [2] and 101 % of control under setting [3].

`CCCC(C)/C=C(\C)C(O)C(C)/C=C/CCC(O)C(C)C(O)C(C)C(O)C(C)C1OC(C(C)C(=O)OC)CCC1C` (configuration not stated): the T/C was 111 % of control (dose: 12.5 mg/kg/injection, schedule: Q01DX005 (ip), vehicle: dimethyl formamide); 108 % of control (dose: 25.0 mg/kg/injection, schedule: Q01DX005 (ip), vehicle: dimethyl formamide); 102 % of control (dose: 50.0 mg/kg/injection, schedule: Q01DX005 (ip), vehicle: dimethyl formamide).

Turning to `O=C1CS/C(=N/C(=O)Nc2ccc(Cl)cc2)N1`, the T/C by setting is: (dose: 25.0 mg/kg/injection, schedule: Q04DX002 (ip), vehicle: Klucel (hydroxypropylcellulose) (HPC)) 90 % of control; (dose: 50.0 mg/kg/injection, schedule: Q04DX002 (ip), vehicle: Klucel (hydroxypropylcellulose) (HPC)) 88 % of control; (dose: 100.0 mg/kg/injection, schedule: Q04DX002 (ip), vehicle: Klucel (hydroxypropylcellulose) (HPC)) 91 % of control; (dose: 200.0 mg/kg/injection, schedule: Q04DX002 (ip), vehicle: Klucel (hydroxypropylcellulose) (HPC)) 95 % of control; (dose: 400.0 mg/kg/injection, schedule: Q04DX002 (ip), vehicle: Klucel (hydroxypropylcellulose) (HPC)) 87 % of control.

For `CC(=O)c1cc2c(cc1C(C)C)CC[C@H]1[C@](C)(C#N)CCC[C@]21C`, the T/C (dose: 50.0 mg/kg/injection, schedule: Q01DX009 (ip), vehicle: saline sonified) is 86 % of control and the T/C (dose: 100.0 mg/kg/injection, schedule: Q01DX009 (ip), vehicle: saline sonified) is 90 % of control.

In the case of `O=P(O)(O)CCCNO`, the T/C runs as follows: (dose: 60.0 mg/kg/injection, schedule: Q01DX005 (ip), vehicle: saline) 95 % of control; (dose: 120.0 mg/kg/injection, schedule: Q01DX005 (ip), vehicle: saline) 91 % of control; (dose: 240.0 mg/kg/injection, schedule: Q01DX005 (ip), vehicle: saline) 90 % of control.

Consider `COC(=O)C1=C(C(=O)OC)P2(C)(C)OC(c3ccccc3)CN2C1(c1ccccc1)c1ccccc1` (configuration not stated), for which the T/C was 98 % of control (dose: 50.0 mg/kg/injection, schedule: Q01DX005 (ip), vehicle: Klucel (hydroxypropylcellulose) (HPC)); 100 % of control (dose: 100.0 mg/kg/injection, schedule: Q01DX005 (ip), vehicle: Klucel (hydroxypropylcellulose) (HPC)); 91 % of control (dose: 200.0 mg/kg/injection, schedule: Q01DX005 (ip), vehicle: Klucel (hydroxypropylcellulose) (HPC)).

For `CCCCCCCCCCCCn1cc[n+](CC(=O)N(O)Cc2ccccc2)c1C`, the T/C is, setting by setting: (dose: 1.56 mg/kg/injection, schedule: Q01DX005 (ip), vehicle: saline with Tween-80) 93 % of control; (dose: 3.12 mg/kg/injection, schedule: Q01DX005 (ip), vehicle: saline with Tween-80) 90 % of control; (dose: 6.25 mg/kg/injection, schedule: Q01DX005 (ip), vehicle: saline with Tween-80) 86 % of control.

As for `CNC(=O)N(C)CP(=O)(O)OC`, the T/C by setting is: (dose: 50.0 mg/kg/injection, schedule: Q01DX009 (ip), vehicle: saline) 100 % of control; (dose: 100.0 mg/kg/injection, schedule: Q01DX009 (ip), vehicle: saline) 98 % of control; (dose: 200.0 mg/kg/injection, schedule: Q01DX009 (ip), vehicle: saline) 91 % of control.

Take `CNC(=O)OCc1c(COC(=O)NC)c(-c2ccc(C(F)(F)F)cc2)n(C)c1C`: the T/C runs as follows: (dose: 3.13 mg/kg/injection, schedule: Q01DX009 (ip), vehicle: distilled water + Tween-80) 123 % of control; (dose: 50.0 mg/kg/injection, schedule: Q01DX009 (ip), vehicle: distilled water + Tween-80) 115 % of control.

For `COc1ccc(/C=N/NC(=O)c2ccc(OCc3nc4ccccc4[nH]3)cc2)cc1`, the T/C was 100 % of control (dose: 25.0 mg/kg/injection, schedule: Q01DX005 (ip), vehicle: saline with Tween-80); 105 % of control under setting [4]; 100 % of control under setting [5]; 100 % of control under setting [6].

As for `CCOC(=O)CC(C#N)(C#N)CC(=O)OCC`, the T/C under setting [4] was 101 % of control, the T/C under setting [5] was 107 % of control and the T/C under setting [6] is 106 % of control.

With `CCCCCCCCCCCCCCCC[N+](C)(C)CC(=O)O`, the T/C by setting is: (dose: 12.5 mg/kg/injection, schedule: Q01DX009 (ip), vehicle: saline with Tween-80) 104 % of control; (dose: 25.0 mg/kg/injection, schedule: Q01DX009 (ip), vehicle: saline with Tween-80) 86 % of control; under setting [1], 105 % of control.

For the molecule `Cn1c2ccc(Cl)cc2c2oc(-c3nn[nH]n3)cc(=O)c21`, the T/C reads like this: under setting [4], 102 % of control; under setting [5], 107 % of control; under setting [6], 97 % of control.

`O=C1CSC(COc2ccc(Cl)cc2Cl)O1` (configuration not stated): the T/C is, setting by setting: (dose: 25.0 mg/kg/injection, schedule: Q01DX009 (ip), vehicle: Klucel (hydroxypropylcellulose) (HPC)) 100 % of control; (dose: 50.0 mg/kg/injection, schedule: Q01DX009 (ip), vehicle: Klucel (hydroxypropylcellulose) (HPC)) 97 % of control.

Consider `CCn1c(=O)c(C#N)c2n(CC)c3cc(C)c(C)cc3n2c1=O`, for which the T/C was 90 % of control under setting [2]; 86 % of control under setting [3]; 86 % of control (dose: 240.0 mg/kg/injection, schedule: Q01DX005 (ip), vehicle: saline with Tween-80).
